From PubChem BioAssay (NCI)
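Results reflect a 48-hour exposure of cells in 96-well plates to compound at five concentrations. At the TGI there is no net growth.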

How the values were obtained:
Experiment in all cases: DTP human tumour cell line panel, 48 h
MDA-N = tested on: MDA-N
OVCAR-5 ovarian = tested on: OVCAR-5 ovarian
NCI-H522 lung = tested on: NCI-H522 lung
RXF 393 renal = tested on: RXF 393 renal
SF-295 CNS = tested on: SF-295 CNS
SN12C renal = tested on: SN12C renal
HCT-15 colon = tested on: HCT-15 colon
OVCAR-4 ovarian = tested on: OVCAR-4 ovarian
SK-MEL-5 melanoma = tested on: SK-MEL-5 melanoma
786-0 renal = tested on: 786-0 renal
DU-145 prostate = tested on: DU-145 prostate
IGROV1 ovarian = tested on: IGROV1 ovarian
MDA-MB-231 breast = tested on: MDA-MB-231 breast
SW-620 colon = tested on: SW-620 colon
SF-539 CNS = tested on: SF-539 CNS
NCI-H23 lung = tested on: NCI-H23 lung
HOP-92 NSCLC = tested on: HOP-92 NSCLC
PC-3 prostate = tested on: PC-3 prostate
HCC-2998 colon = tested on: HCC-2998 colon
HL-60(TB) leukemia = tested on: HL-60(TB) leukemia
M14 melanoma = tested on: M14 melanoma
OVCAR-8 ovarian = tested on: OVCAR-8 ovarian
HOP-62 NSCLC = tested on: HOP-62 NSCLC
LOX IMVI melanoma = tested on: LOX IMVI melanoma
U251 CNS = tested on: U251 CNS
MOLT-4 leukemia = tested on: MOLT-4 leukemia
T-47D breast = tested on: T-47D breast
NCI-H460 lung = tested on: NCI-H460 lung
A549 NSCLC = tested on: A549 NSCLC
NCI-H226 lung = tested on: NCI-H226 lung
BT-549 breast = tested on: BT-549 breast
RPMI-8226 leukemia = tested on: RPMI-8226 leukemia
OVCAR-3 ovarian = tested on: OVCAR-3 ovarian
MDA-MB-435 = tested on: MDA-MB-435
KM12 colon = tested on: KM12 colon
HT29 colon = tested on: HT29 colon
UACC-257 melanoma = tested on: UACC-257 melanoma
EKVX NSCLC = tested on: EKVX NSCLC
SNB-75 CNS = tested on: SNB-75 CNS
CAKI-1 renal = tested on: CAKI-1 renal
HS 578T breast = tested on: HS 578T breast
MCF7 breast = tested on: MCF7 breast
CCRF-CEM leukemia = tested on: CCRF-CEM leukemia
SF-268 CNS = tested on: SF-268 CNS
K-562 leukemia = tested on: K-562 leukemia
COLO 205 colon = tested on: COLO 205 colon
SNB-19 CNS = tested on: SNB-19 CNS
SK-OV-3 ovarian = tested on: SK-OV-3 ovarian
UO-31 renal = tested on: UO-31 renal
MALME-3M melanoma = tested on: MALME-3M melanoma
SK-MEL-2 melanoma = tested on: SK-MEL-2 melanoma
UACC-62 melanoma = tested on: UACC-62 melanoma
HCT-116 colon = tested on: HCT-116 colon
SR leukemia = tested on: SR leukemia
ACHN renal = tested on: ACHN renal
NCI/ADR-RES ovarian = tested on: NCI/ADR-RES ovarian
A498 renal = tested on: A498 renal
TK-10 renal = tested on: TK-10 renal
SK-MEL-28 melanoma = tested on: SK-MEL-28 melanoma

For `O=C(NCCCl)N(O)C(=O)Nc1ccccc1`, the TGI (MDA-N) was > 100 µM, the TGI (OVCAR-5 ovarian) was > 100 µM and the TGI (NCI-H522 lung) was > 100 µM. For the same molecule, the TGI (RXF 393 renal) was > 100 µM, the TGI (SF-295 CNS) was > 100 µM and the TGI (SN12C renal) was > 100 µM. The TGI (HCT-15 colon) was > 100 µM, the TGI (OVCAR-4 ovarian) was > 100 µM and the TGI (SK-MEL-5 melanoma) was > 100 µM. For the same molecule, the TGI (786-0 renal) was > 100 µM, the TGI (DU-145 prostate) was > 100 µM and the TGI (IGROV1 ovarian) was > 100 µM. The TGI (MDA-MB-231 breast) was > 100 µM, the TGI (SW-620 colon) was > 100 µM and the TGI (SF-539 CNS) was > 100 µM. The TGI (NCI-H23 lung) was > 100 µM, the TGI (HOP-92 NSCLC) was > 100 µM and the TGI (PC-3 prostate) was > 100 µM. For the same molecule, the TGI (HCC-2998 colon) was > 100 µM, the TGI (HL-60(TB) leukemia) was > 100 µM and the TGI (M14 melanoma) was > 100 µM. For the same molecule, the TGI (OVCAR-8 ovarian) was > 100 µM, the TGI (HOP-62 NSCLC) was > 100 µM and the TGI (LOX IMVI melanoma) was > 100 µM. For the same molecule, the TGI (U251 CNS) was > 100 µM, the TGI (MOLT-4 leukemia) was > 100 µM and the TGI (T-47D breast) was > 100 µM. For the same molecule, the TGI (NCI-H460 lung) was > 100 µM, the TGI (A549 NSCLC) was > 100 µM and the TGI (NCI-H226 lung) was > 100 µM. For the same molecule, the TGI (BT-549 breast) was > 100 µM, the TGI (RPMI-8226 leukemia) was > 100 µM and the TGI (OVCAR-3 ovarian) was > 100 µM. The TGI (MDA-MB-435) was > 100 µM, the TGI (KM12 colon) was > 100 µM and the TGI (HT29 colon) was > 100 µM. The TGI (UACC-257 melanoma) was > 100 µM, the TGI (EKVX NSCLC) was > 100 µM and the TGI (SNB-75 CNS) was > 100 µM. For the same molecule, the TGI (CAKI-1 renal) was > 100 µM, the TGI (HS 578T breast) was > 100 µM and the TGI (MCF7 breast) was > 100 µM. The TGI (CCRF-CEM leukemia) was > 100 µM, the TGI (SF-268 CNS) was > 100 µM and the TGI (K-562 leukemia) was > 100 µM. The TGI (COLO 205 colon) was > 100 µM, the TGI (SNB-19 CNS) was > 100 µM and the TGI (SK-OV-3 ovarian) was > 100 µM. The TGI (UO-31 renal) was > 100 µM, the TGI (MALME-3M melanoma) was > 100 µM and the TGI (SK-MEL-2 melanoma) was > 100 µM. For the same molecule, the TGI (UACC-62 melanoma) was > 100 µM, the TGI (HCT-116 colon) was > 100 µM and the TGI (SR leukemia) was > 100 µM. The TGI (ACHN renal) was > 100 µM, the TGI (NCI/ADR-RES ovarian) was > 100 µM and the TGI (A498 renal) was > 100 µM. For the same molecule, the TGI (TK-10 renal) was > 100 µM.
`O=C1c2cccc3cccc(c23)C(=O)N1CCCNCCCNCCCCNCCCNCCCN1C(=O)c2cccc3cccc(c23)C1=O` was tested, and the TGI (MDA-N) was 6.83 µM, the TGI (OVCAR-5 ovarian) was 21.9 µM and the TGI (NCI-H522 lung) was 32.6 µM. For the same molecule, the TGI (RXF 393 renal) was 19.1 µM, the TGI (SF-295 CNS) was 24.4 µM and the TGI (SN12C renal) was 16.4 µM. For the same molecule, the TGI (HCT-15 colon) was 30.9 µM, the TGI (OVCAR-4 ovarian) was 19.1 µM and the TGI (SK-MEL-5 melanoma) was 41.1 µM. For the same molecule, the TGI (786-0 renal) was 6.12 µM, the TGI (DU-145 prostate) was 14 µM and the TGI (IGROV1 ovarian) was 24.5 µM. It also gave a TGI (MDA-MB-231 breast) of 22.4 µM, a TGI (SW-620 colon) of 14.9 µM and a TGI (SF-539 CNS) of 23.7 µM. The TGI (NCI-H23 lung) was 16 µM, the TGI (HOP-92 NSCLC) was 22 µM and the TGI (PC-3 prostate) was 13.4 µM. It also gave a TGI (HCC-2998 colon) of 16.8 µM, a TGI (HL-60(TB) leukemia) of 4.64 µM and a TGI (M14 melanoma) of 16.2 µM. For the same molecule, the TGI (OVCAR-8 ovarian) was 40 µM, the TGI (HOP-62 NSCLC) was 27.3 µM and the TGI (SK-MEL-28 melanoma) was 9 µM. The TGI (LOX IMVI melanoma) was > 38.1 µM, the TGI (U251 CNS) was 20.2 µM and the TGI (MOLT-4 leukemia) was 2.84 µM. For the same molecule, the TGI (T-47D breast) was 47 µM, the TGI (NCI-H460 lung) was 14.1 µM and the TGI (A549 NSCLC) was 12.9 µM. For the same molecule, the TGI (NCI-H226 lung) was 28.6 µM, the TGI (BT-549 breast) was 15.1 µM and the TGI (RPMI-8226 leukemia) was > 34 µM. For the same molecule, the TGI (OVCAR-3 ovarian) was 19.6 µM, the TGI (MDA-MB-435) was 10.1 µM and the TGI (KM12 colon) was 13.9 µM. For the same molecule, the TGI (HT29 colon) was 5.5 µM, the TGI (UACC-257 melanoma) was 22.6 µM and the TGI (EKVX NSCLC) was 22 µM. It also gave a TGI (SNB-75 CNS) of 12.5 µM, a TGI (CAKI-1 renal) of 29.6 µM and a TGI (HS 578T breast) of 13.3 µM. It also gave a TGI (MCF7 breast) of 1.61 µM, a TGI (CCRF-CEM leukemia) of 3.29 µM and a TGI (SF-268 CNS) of 12.9 µM. The TGI (K-562 leukemia) was 16.5 µM, the TGI (SNB-19 CNS) was 15.9 µM and the TGI (SK-OV-3 ovarian) was 32.1 µM. It also gave a TGI (UO-31 renal) of 30.4 µM, a TGI (MALME-3M melanoma) of 7.03 µM and a TGI (SK-MEL-2 melanoma) of 16.8 µM. For the same molecule, the TGI (UACC-62 melanoma) was 12.3 µM, the TGI (HCT-116 colon) was 8.17 µM and the TGI (SR leukemia) was > 31.8 µM. The TGI (ACHN renal) was 15.3 µM, the TGI (NCI/ADR-RES ovarian) was 46.8 µM and the TGI (A498 renal) was 25.2 µM. For the same molecule, the TGI (TK-10 renal) was 25 µM.
